Measured values published in PMC8132994, “NanoFAST: structure-based design of a small fluorogen-activating protein with only 98 amino acids” (Chemical Science, 2021).

Molecular target: T1, FAST (Halorhodospira halophila, UniProt P16113, C69G/Y94W/T95M/F96I/D97P/Y98T/Q99S/M100R/T101G)
T1 construct: gene pyp; C-terminal His6 tag in NMR structure
T1 sequence (P16113 1-125 C69G/Y94W/T95M/F96I/D97P/Y98T/Q99S/M100R/T101G): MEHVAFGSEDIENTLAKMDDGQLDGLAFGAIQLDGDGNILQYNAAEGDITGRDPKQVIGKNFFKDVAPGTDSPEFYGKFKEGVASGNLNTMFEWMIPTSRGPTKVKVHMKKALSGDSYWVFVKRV
Assay: solution NMR structure of the complex
Type: binding
Conditions: pH 7.0, 25 °C (1H NMR spectra); 13C/15N-labelled protein

## COc1cc(O)ccc1/C=C1N=C(/C=C/c2ccncc2)N(C)C\1=O [N871b]
  solution NMR structure of the complex: solved the spatial structure of the protein in complex with a promising ligand N871b
